Laboratory results as given in PubChem BioAssay AID540268 (Broad Institute, 2011).
Calls of active or inactive are those of the source. No rule for the calls is given here.

Assay: reduced viability of parasite-Hsp90 expressing yeast – ATP luminescence, 48 h, cherry-picked samples, anti-malarial Hsp90 inhibitor project, dose response (AID 540268);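 as to activity change, negative = inhibition: 0% = neutral control wells and -100% = positive control wells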
Conditions: yeast expressing the parasite Hsp90, ATP luminescence; for activity change, negative = inhibition: at 26 µM (top of the series)

## CC(C)C(=O)NC(c1cccc([N+](=O)[O-])c1)c1ccc2cccnc2c1O (stereo unspecified)
  AC50: 2.73 µM

## O=C1CCCN1CCC1CCN(C2CC(=O)N(c3ccc(Cl)cc3)C2=O)CC1 (stereo unspecified)
  AC50: 4.79 µM

## CCN1/C(=C/c2ccc3cc(C)cc(C)c3[n+]2CC)Sc2cc(C)ccc21
  AC50: 2.91 µM

## CCCCCCCCCCCCCCCC(O)C[N+](C)(C)CCO (stereo unspecified)
  AC50: 6.61 µM

## Cc1c(CCCl)c(Cl)n2c(nc3ccccc32)c1C#N
  AC50: 3.39 µM

## O=c1cc(-c2ccc(C3CCCCC3)cc2)[nH][nH]1
  AC50: 7.7 µM

## Cc1sc(NC(=O)c2ccco2)c(C(c2cccnc2)N2CCC(C)CC2)c1C (stereo unspecified)
  AC50: 7.74 µM

## CCCCCCCCCCOC(=O)Cn1c(COc2cccc(C)c2)[n+](C)c2ccccc21
  AC50: 15.5 µM

## Cc1ccc(/C=C/C(=O)c2ccccc(=O)c2O)c(C)c1
  AC50: 1.93 µM

## Cc1cc2cc(CNC(=O)c3ccc(C)c([N+](=O)[O-])c3)ccc2[nH]1
  AC50: 8.29 µM

## CCCCCCCCn1sccc1=O
  AC50: 0.871 µM

## Cc1[nH]n(-c2ccc([N+](=O)[O-])cc2)c(=O)c1C=NCCN1CCN(C(=O)c2ccccc2F)CC1
  AC50: 6.44 µM

## Oc1c(C(Nc2cccc(C(F)(F)F)c2)c2ccncc2)ccc2cccnc12 (stereo unspecified)
  AC50: 5.15 µM

## c1ccc(-c2nnc(-c3ccccn3)nc2NC2CCCCC2)cc1
  AC50: 0.393 µM

## CCCCCCCCCCCCCCCC[N+](C)(C)CC
  AC50: 4.04 µM

## CC(C)(C)c1ccc(-n2nc(C#N)c(Cl)cc2=O)cc1
  AC50: 4.31 µM

## N/C(Cc1ccc(Cl)cc1Cl)=N\OC(=O)c1ccc(Br)o1
  AC50: 4.14 µM

## O=C(/C=C/N1CCOCC1)c1ccc(-c2ccccc2)cc1
  AC50: 4.23 µM

## O=c1oc(-c2ccccc2)cc(Cl)c1Cl
  AC50: 3.77 µM

## O=C1C=CC(=O)N1c1ccc(N2CCCCC2)cc1
  AC50: 0.312 µM

## Oc1c(C(c2ccc(Cl)cc2)N2CCCC2)cc(Cl)c2cccnc12 (stereo unspecified)
  AC50: 1.58 µM

## O=[N+]([O-])c1cc(Cc2ccccc2)cc(C=Nc2ccc(N3CCOCC3)cc2)c1O
  AC50: 3.46 µM

## O=C1CC(N2CCN(c3nc4ccccc4s3)CC2)C(=O)N1Cc1cccs1 (stereo unspecified)
  AC50: 4.66 µM

## Oc1c(C(c2ccccc2)N2CCOCC2)ccc2ccccc12 (stereo unspecified)
  AC50: 6.53 µM

## Cc1ccc(-c2cc(C(=O)N3N=C(C(F)F)CC3(O)C(F)F)c3ccccc3n2)cc1C (stereo unspecified)
  AC50: 2.93 µM

## c1ccc(-c2c(-c3ccccc3)n(Cc3ccco3)c3ncnc(NCCCn4ccnc4)c23)cc1
  AC50: 1.83 µM

## CCCCCCC(=O)N(O)C1CC(=O)N(c2ccc(C)cc2)C1=O (stereo unspecified)
  AC50: 0.829 µM

## CC(=O)C1=C(c2ccc(Br)cc2)C(=O)c2ccccc2C1=O
  AC50: 7.82 µM

## CCc1ccc(NC(=O)c2nc(S(=O)(=O)Cc3ccccc3)ncc2Cl)cc1
  AC50: 3.5 µM

## O=C1c2ccccc2NC(c2ccc(-c3ccc(C(F)(F)F)cc3)o2)N1O (stereo unspecified)
  AC50: 7.62 µM

## CC(=O)NC(c1ccc(C(C)C)cc1)c1ccc2cccnc2c1O (stereo unspecified)
  AC50: 2.24 µM

## O=C(OCC(=O)N1CCN(C(=O)c2ccco2)CC1)c1cc(-c2ccccc2)nc2ccccc12
  AC50: 3.6 µM

## COc1ccc(S(=O)(=O)N(C(=O)c2ccncc2)c2ccc(OC(=O)c3ccncc3)cc2)cc1
  AC50: 1.68 µM

## CC(C)(C)c1nn(-c2ccccc2)c2[nH]c(=O)c(CNc3ccc4c(c3)OCCO4)cc12
  activity change, negative = inhibition: -106% (inactive)

## CC(C)=CCc1c2c(c3occ(-c4ccc(O)c(O)c4)c(=O)c3c1O)C=CC(C)(C)O2
  AC50: 8.75 µM

## CC(C)Cn1c(=O)c(C(=O)Nc2ccncc2)c(O)c2ccccc21
  AC50: 8.25 µM

## N#CSCC(=O)c1cccc2ccccc12
  AC50: 1.92 µM

## O=C(/C=C/c1ccccc1)CCN1CCOCC1
  AC50: 2.47 µM

## Oc1ccc(N=Nc2c(O)ccc3ccccc23)cc1
  AC50: 7.02 µM

## CC(=O)N1CCN(c2ccc(OC[C@H]3CO[C@](Cn4ccnc4)(c4ccc(Cl)cc4Cl)O3)cc2)CC1
  AC50: 1.29 µM

## C[C@H]1C[C@@H](C)C(=O)[C@@H]([C@H](O)CC2CC(=O)NC(=O)C2)C1
  AC50: < 0.195 µM

## COc1ccc([N+](=O)[O-])c(S(=O)(=O)c2ccc(Cl)cc2)n1
  AC50: 1.27 µM

## CCOc1ccc(Br)cc1C1=NN(C(C)=O)C(c2ccc([N+](=O)[O-])s2)O1 (stereo unspecified)
  AC50: 8.12 µM

## O=C(C#Cc1ccccc1)c1cccc([N+](=O)[O-])c1
  AC50: 0.291 µM

## Cc1sc2nc(C3CC3)nc(SCC(=O)NCc3ccco3)c2c1C
  AC50: 7.33 µM

## O=C1/C(=C\c2ccc(O)c(O)c2)SC(=S)N1Cc1ccccc1
  AC50: 4.26 µM

## Cn1c(/C=C/c2ccc([N+](=O)[O-])o2)nc2ccccc2c1=O
  AC50: 6 µM

## OCCOCCn1c(C2CCCN2c2nc(-c3ccc(F)cc3)cs2)nc2cc(Cl)c(Cl)cc21 (stereo unspecified)
  AC50: 6 µM

## O=C(Nc1cccc(C(F)(F)F)c1)Oc1ccc(Cl)c2cccnc12
  AC50: 4.93 µM

## O=C(c1ccccc1)c1ccccc1N1C(=O)C=CC1=O
  AC50: 1.71 µM

## COc1ccccc1C(=O)NNC(=S)NC(=O)c1ccco1
  AC50: 2.41 µM

## Oc1ccc(Cl)cc1/C=C/c1ccc2cccc(O)c2n1
  AC50: 2.66 µM

## COc1cccc(/C=N/NC(=O)C(=O)Nc2ccccc2OC(F)(F)C(F)F)c1O
  AC50: 0.731 µM

## CC1CCN(c2nc(Cl)nc(Nc3ccc([N+](=O)[O-])cc3)n2)CC1
  AC50: 24 µM

## O=C(O)c1cn(-c2ccc(N3CCCC3)c(F)c2)c2c(F)c(F)c(F)cc2c1=O
  AC50: 4.36 µM

## Clc1ccc(N=c2ssnc2Cl)cc1
  AC50: 2.69 µM

## COc1ccccc1C(=O)Nc1nc2ccccc2[nH]1
  AC50: 1.22 µM

## COc1ccc2c(c1)OC[C@H]1[C@H]2N2C(=O)c3cc(Cl)ccc3NC(=O)[C@@]2(C)[C@H]1c1ccccc1
  AC50: 1.12 µM

## O=S(=O)(Nc1nc2ccccc2nc1N1CCN(c2ccccn2)CC1)c1ccc(Cl)cc1
  AC50: 8.25 µM

## CCCc1cc(=O)oc2cc(OCc3ccc(C(=O)O)cc3)ccc12
  AC50: 2.73 µM

## COc1ccc(-c2nnc(SCC(=O)Oc3ccc(C)cc3)o2)cc1
  AC50: 2.02 µM

## CC1(C)N=C(SCC(=O)Nc2ccc(Cl)cc2)C(c2ccc(Cl)cc2)=N1
  AC50: 8.73 µM

## Clc1ccccc1CN(Cc1ccco1)Cc1nnnn1C1CCCC1
  AC50: 9.49 µM

## CN(C)CC1CC/C(=C\c2ccc(O)cc2)C1=O (stereo unspecified)
  AC50: 5.54 µM

## CCC(=O)OC1(C)C(=O)C2=COC(c3ccc(OC)cc3)=CC2=C(Br)C1=O (stereo unspecified)
  AC50: 2.81 µM

## CCCNC(=O)c1nnsc1S(=O)(=O)c1ccc(Cl)cc1
  AC50: 0.758 µM

## CC1=CC(=O)C(C(C)C)=C/C1=N/OS(=O)(=O)c1ccccc1
  AC50: 3.09 µM

## O=C(/C=C/c1ccccc1Cl)c1ccc(O)cc1
  AC50: 4.63 µM

## CC(=NNC(=S)Nc1cccc(Cl)c1)c1ccccn1
  AC50: 16.6 µM

## CC1=NN(c2nc3ccccc3[nH]2)C(=O)/C1=C/N(C)C
  AC50: 2.23 µM

## CC1=C/C(=N\OS(=O)(=O)c2ccccc2)C(C)=CC1=O
  AC50: 0.597 µM

## O=[N+]([O-])c1cc2no[n+]([O-])c2cc1N1CCCCC1
  AC50: 0.877 µM

## COc1cc(N=c2ssnc2Cl)c(OC)cc1Cl
  activity change, negative = inhibition: -119% (inactive)

## O=[N+]([O-])c1ccc(O)c(/C=N/Nc2ccccn2)c1
  AC50: 3.31 µM

## Cc1ccc(NS(=O)(=O)c2ccc(N3CCN(c4ccc(O)cc4)CC3)c([N+](=O)[O-])c2)c(C)c1
  AC50: 5.7 µM

## COc1ccc(Nc2cnn(-c3nc4ccccc4s3)c(=O)c2Cl)cc1
  AC50: 3.21 µM

## CC1CCCCC1NC(=O)/C(C#N)=C/c1ccccc1F (stereo unspecified)
  AC50: 0.87 µM

## O=C(N/N=C/c1ccc(O)c2ncccc12)c1cccc(Br)c1
  AC50: 5.08 µM

## CCCCCCCCCCCCn1ccc(=N)cc1
  AC50: 7.7 µM

## OC(Cn1cncn1)(c1ccccc1)c1ccccc1
  AC50: 1.57 µM

## CCN1/C(=C/c2ccc3cc(C)ccc3[n+]2CC)Sc2cc(C)c(C)cc21
  AC50: 3.25 µM

## O=C(/C=C/c1cccc(Cl)c1)c1ccc([N+](=O)[O-])o1
  AC50: 0.84 µM

## Cc1cccc(C(=O)NC(=S)NNC(=O)Cc2ccccc2)c1
  AC50: 4.34 µM

## N/C(Cc1ccc(Cl)cc1)=N\OC(=O)c1cccc2ccccc12
  AC50: 2.19 µM

## COCCOC(=O)/C(=C/c1ccc(OC(=O)c2ccccc2)cc1)C(C)=O
  AC50: 2.68 µM

## Cc1ccc(N2C(=O)C3C4C=CC(CNC(=S)Nc5ccc(Cl)cc5)(O4)C3C2=O)cc1 (stereo unspecified)
  AC50: 11.9 µM

## O=C1C(=C(I)I)c2ccccc2-c2ccccc21
  activity change, negative = inhibition: 26.6% (inactive)

## Cc1cc(-c2cc(-c3ccc(Cl)cc3)nc(N)c2C#N)co1
  AC50: 5.34 µM

## COc1ccc(OC)c(NC(=O)Nc2ccc(O)c3ccccc23)c1
  AC50: < 0.195 µM

## CC(=O)NC(c1ccc(Cl)cc1)c1ccc2cccnc2c1O (stereo unspecified)
  AC50: 2.58 µM

## Cc1ccc(NC(=S)N/N=C/c2ccc([N+](=O)[O-])s2)cc1
  AC50: 4.92 µM

## CSc1nc2cc(Oc3cccc(Cl)c3Cl)c(Cl)cc2[nH]1
  AC50: 6.41 µM

## O=C(NNC1=C(C(=O)C(F)(F)F)CCC1)c1ccc(Cl)cc1
  AC50: 1.34 µM

## O=C(O)/C=C/C(=O)c1ccc2c(c1)CCc1ccccc1-2
  AC50: 26.3 µM

## C[CH2][Hg][S]c1ccccc1C(=O)O
  AC50: 4.9 µM

## CC(C)(C)C(=O)C(Cl)C(=O)Nc1ccccc1 (stereo unspecified)
  AC50: 1.06 µM

## COc1cccc(N=Nc2ccc(O)c3ncccc23)c1
  AC50: 3.57 µM

## C[C@@H]1C[C@@H]([C@H](O)CC2CC(=O)NC(=O)C2)C(=O)[C@@H](C)C1
  AC50: < 0.195 µM

## Cc1cc(C)c2c(N=NN3CCCCC3)[nH]nc2n1
  AC50: 4.73 µM

## O=S(=O)(/C=C/c1ccccc1)NC1CCCCCCC1
  AC50: 1.18 µM

## CCCC(=O)NC(c1ccccc1)c1ccc2cccnc2c1O (stereo unspecified)
  AC50: 4.7 µM

## O=C(/C=C/c1ccc(F)cc1)NC(=S)NNC(=O)c1cnccn1
  AC50: 2.71 µM

## CCCOC(=O)c1ccc(Oc2cn[nH]c2-c2ccc(OC)cc2O)cc1
  AC50: 6 µM

## CCOC(=O)c1cc([N+](=O)[O-])c([N+](=O)[O-])cc1NC(C)=O
  AC50: 2.08 µM

## Oc1c(CN2CCCCC2)cc(Br)c2cccnc12
  AC50: 2.95 µM

## O=C(N/N=C/c1ccccn1)c1cc(-c2ccc(Cl)cc2)nc2ccccc12
  AC50: 8.57 µM

## CC(=NNC(=S)N1CCN(c2ccccn2)CC1)c1nccs1
  AC50: 2.58 µM

## O=C(Nc1nc(-c2ccccn2)cs1)c1ncc(Cl)c(Cl)c1Cl
  AC50: 2.9 µM

## Cc1sc2ncnc(N/N=C/c3ccccc3O)c2c1C
  AC50: 4.4 µM

## CCCCCCCCCCCCCCCC[n+]1ccc(/C=N/O)cc1
  AC50: < 0.195 µM

## CCCC1COC(Cn2cncn2)(c2ccc(C)cc2)O1 (stereo unspecified)
  AC50: 0.628 µM

## COc1cccc(F)c1C(C[N+](=O)[O-])c1c(N)n(C)c(=O)n(C)c1=O (stereo unspecified)
  AC50: 4.3 µM

## O=[N+]([O-])c1ccc2c(c1)-c1ccccc1C2=NO
  AC50: 2.72 µM

## CCN(CC)c1ccc(/C=C2/SC(=O)N(C(C)C)C2=O)o1
  AC50: 13.5 µM

## O=[N+]([O-])c1cc(Cl)c(O)c2ncccc12
  AC50: 1.81 µM

## [O-][n+]1cccc2c(Br)cc(Br)c(O)c21
  AC50: 3.55 µM
